Legend:
[1] = test system: acute kidney injury induced by folic acid; experiment: Folic acid acute kidney injury model in mice: serum creatinine (Scr) and blood urea nitrogen (BUN); type: in vivo, C57BL/6 mice; settings: acute model (FA), 3 days
[2] = test system: renal injury markers (Ngal, Havcr1), inflammatory cytokines (TNF, IL-6, IL-1), fibrosis-related factors (α-Sma, Col1a1, Tgfb1); experiment: Unilateral ureteral ligation (UUO) chronic kidney injury model in mice: Q-PCR of kidney tissue; type: in vivo, C57BL/6 mice; design: Tnf / Il1 / Il6: unit not given here; settings: kidney mRNA
[3] = test system: chronic kidney injury induced by unilateral ureteral ligation; experiment: Unilateral ureteral ligation (UUO) chronic kidney injury model in mice: Scr and BUN; type: in vivo, C57BL/6 mice; settings: serum, 14 days
[4] = test system: fibrosis-related factors (Acta2, Col1a1, Tgfb1); experiment: CCl4 acute liver injury model in mice: Q-PCR of fibrosis-related factors in liver; type: in vivo, C57BL/6 mice; settings: liver mRNA
Method: They were acclimated for 7 days before use in experiments. • Experimental Methods: Establishment of Acute Liver Injury Model in Mice and Group-Specific Drug Administration • Mice were randomly assigned to groups. One group was arbitrarily designated as the normal group, while the remaining groups served as model group, Compound 1 group, Hydrochloride 20 group, Fumarate 21 group, and Silibinin group, with 6 mice per group. Except for the normal group receiving 10 mL olive oil/kg via injection, all other mice received 0.5 mL CCl4 + 9.5 mL olive oil/kg body weight via intraperitoneal injection, maintaining a CCl4 to olive oil ratio of 1:19. Starting from day 1 of modeling, Compound 1, Hydrochloride 20, and Fumarate 21 were administered orally for 3 consecutive days. […] The blood was allowed to stand at room temperature for 2 hours, then centrifuged at 3000 rpm for 20 minutes. Serum was aspirated, aliquoted, and stored at -70 °C for future use. After blood collection, euthanize mice by cervical dislocation. Perform laparotomy to remove the liver. Rinse twice with pre-chilled PBS. Excise the left hepatic lobe tissue. […] Store remaining tissue at -70 °C for future use. • Serum AST and ALT Assay: Use 10 µL of each sample for testing. Determine mouse serum AST and ALT levels according to the operating manual. Measure absorbance at 510 nm using an enzyme-linked immunosorbent assay (ELISA) reader. Calculate sample concentration (U/L) based on the standard curve.
Q-PCR Analysis: Tissue total RNA extraction, cDNA synthesis, and PCR amplification methods are identical to Example 4. Additional primer information is as follows:
Data Statistics: All data are expressed as means ± standard error of the mean (S.E.M.). Differences were analyzed for significance using analysis of variance (ANOVA). For groups showing significant differences in ANOVA, one-way ANOVA followed by Dunnett's test was performed to compare intergroup differences.

[5] = test system: Human keratinocytes (Hacat); experiment: Hyaluronic acid and hyaluronidase levels in UVB-irradiated human keratinocytes; type: cell-based; settings: UVB 90 mJ/cm^2, 24 h
Method: Human keratinocytes (Hacat) were cultured routinely in DMEM medium containing 10% FBS within a 5% CO2 incubator.

[6] = test system: Th2-related factors Il4, Il13, Il31 and inflammatory factors Tslp, Tnf, Il1; experiment: MC903-induced ear atopic dermatitis mouse model, Compound 1 ointment: Q-PCR of ear; type: in vivo; design: unit not given here; settings: ear mRNA, AD mice
Method: Except for the Normal group, all other groups underwent AD modeling: 20 µL of MC903 solution (also known as calcipotriol, purchased from Shanghai Yuanye Biotechnology Co., Ltd., used for inducing atopic models) was applied to each mouse's ears once daily for 14 consecutive days to induce the atopic dermatitis model. […] Measure ear thickness changes every 2 days using an electronic caliper before modeling and after treatment initiation.

[7] = test system: Rat mast cells (RBL-2H3); experiment: Mast cell degranulation test (anti-DNP IgE / DNP-HSA); type: cell-based; settings: RBL-2H3, IgE+HSA, 4 h
Method: Rat mast cells (RBL-2H3) were cultured routinely in DMEM medium containing 10% FBS within a 5% CO2 incubator. Upon reaching 70-80% confluence, cells were uniformly seeded at a density of 1 × 10^5 cells/mL into 6-well plates (2 mL per well), divided into the following groups: Normal, IgE+HSA, Compound 1 (0.01, 0.1, 1, 10 µM). Mast cells were sensitized with 500 µg/L anti-DNP IgE for 12 h. washed with PBS, and cultured for an additional 12 h with 100 µg/L DNP-HSA. Compound 1 at the specified concentrations was then added. […]

[8] = Safety evaluation of Compound 20: 30-day oral gavage in mice (body weight, activity status, survival rate)

C=C1C(=O)O[C@@H]2[C@@H]3[C@]4(CC[C@@]3(C)O)C[C@]4(C)CC[C@@H]12 [compound 1] showed a BUN ([1]; oral gavage 0.1 mg/kg) of 31.46±2.54, a Scr ([1]; oral gavage 0.1 mg/kg) of 108.48±11.76 and a BUN ([1]; oral gavage 1 mg/kg) of 21.33±2.21. The Scr ([1]; oral gavage 1 mg/kg) was 71.95±5.74, the Col1a1 ([2]; oral 0.1 mg/kg) was 16.09±3.57 and the Havcr1 ([2]; oral 0.1 mg/kg) was 12.56±1.95. For the same molecule, the Il1 ([2]; oral 0.1 mg/kg) was 6.05±0.49, the Il6 ([2]; oral 0.1 mg/kg) was 16.52±1.69 and the Ngal ([2]; oral 0.1 mg/kg) was 37.82±4.85. For the same molecule, the Tgfb1 ([2]; oral 0.1 mg/kg) was 2.04±0.24, the Tnf ([2]; oral 0.1 mg/kg) was 6.41±1.46 and the α-Sma ([2]; oral 0.1 mg/kg) was 2.32±0.54. It also gave a Col1a1 ([2]; oral 1 mg/kg) of 9.45±1.03, a Havcr1 ([2]; oral 1 mg/kg) of 8.54±1.38 and an Il1 ([2]; oral 1 mg/kg) of 3.99±0.31. The Il6 ([2]; oral 1 mg/kg) was 6.50±1.51, the Ngal ([2]; oral 1 mg/kg) was 21.66±6.00 and the Tgfb1 ([2]; oral 1 mg/kg) was 1.55±0.19. The Tnf ([2]; oral 1 mg/kg) was 6.59±1.19, the α-Sma ([2]; oral 1 mg/kg) was 1.54±0.12 and the BUN ([3]; oral gavage 0.1 mg/kg) was 18.41±1.82. It also gave a Scr ([3]; oral gavage 0.1 mg/kg) of 176.35±17.11, a BUN ([3]; oral gavage 1 mg/kg) of 11.01±1.54 and a Scr ([3]; oral gavage 1 mg/kg) of 104.65±16.26. The Acta2 ([4]; oral 0.1 mg/kg) was 3.82±0.88, the Col1a1 ([4]; oral 0.1 mg/kg) was 2.28±0.80 and the Tgfb1 ([4]; oral 0.1 mg/kg) was 1.39±0.58. The Acta2 ([4]; oral 1 mg/kg) was 2.34±0.16, the Col1a1 ([4]; oral 1 mg/kg) was 1.40±0.31 and the Tgfb1 ([4]; oral 1 mg/kg) was 1.08±0.21. For the same molecule, the Hyaluronic acid ([5]; 0.01 µM) was 8.73 ± 1.62 ng/mL, the Hyaluronidase ([5]; 0.01 µM) was 124.41 ± 16.49 ng/mL and the Hyaluronic acid ([5]; 0.1 µM) was 14.17 ± 1.30 ng/mL. It also gave a Hyaluronidase ([5]; 0.1 µM) of 88.07 ± 10.17 ng/mL, a Hyaluronic acid ([5]; 1 µM) of 19.51 ± 1.87 ng/mL and a Hyaluronidase ([5]; 1 µM) of 56.03 ± 5.53 ng/mL. For the same molecule, the Hyaluronic acid ([5]; 10 µM) was 24.82 ± 1.13 ng/mL, the Hyaluronidase ([5]; 10 µM) was 37.73 ± 11.49 ng/mL and the Il1 ([6]; 0.01% ointment) was 19.67 ± 5.26. For the same molecule, the Il4 ([6]; 0.01% ointment) was 3.62 ±0.97, the Il13 ([6]; 0.01% ointment) was 3.30 ±0.47 and the Il31 ([6]; 0.01% ointment) was 2.31 ±0.28. It also gave a TSLP ([6]; 0.01% ointment) of 2.24 ±0.25, a Tnf ([6]; 0.01% ointment) of 2.35 ±0.39 and an Il1 ([6]; 0.1% ointment) of 9.89 ±3.44. The Il4 ([6]; 0.1% ointment) was 1.95 ±0.66, the Il13 ([6]; 0.1% ointment) was 2.85 ±0.48 and the Il31 ([6]; 0.1% ointment) was 1.64 ±0.25. For the same molecule, the TSLP ([6]; 0.1% ointment) was 1.42 ±0.16, the Tnf ([6]; 0.1% ointment) was 1.34 ±0.41 and the Il1 ([6]; 1% ointment) was 5.69±1.12. For the same molecule, the Il4 ([6]; 1% ointment) was 1.17±0.37, the Il13 ([6]; 1% ointment) was 1.56±0.20 and the Il31 ([6]; 1% ointment) was 1.10±0.19. It also gave a TSLP ([6]; 1% ointment) of 1.12±0.07, a Tnf ([6]; 1% ointment) of 1.01±0.40 and a β-Glucosaminidase ([7]; 0.01 µM) of 13.24 ± 0.08 ng/mL. The β-Glucosaminidase ([7]; 0.1 µM) was 12.08 ± 0.12 ng/mL, the β-Glucosaminidase ([7]; 1 µM) was 10.65 ± 0.05 ng/mL and the β-Glucosaminidase ([7]; 10 µM) was 7.13 ± 0.07 ng/mL.
In the case of CN(C)C[C@@H]1C(=O)O[C@H]2[C@H]1CC[C@@]1(C)C[C@]13CC[C@@](C)(O)[C@H]23 [compound 20], the BUN ([1]; oral gavage 1 mg/kg) is reported as 16.74±1.42, the Scr ([1]; oral gavage 1 mg/kg) is reported as 64.94±9.68 and the α-Sma ([2]; oral 1 mg/kg, 1 mg/kg) is reported as 1.26±0.18. For the same molecule, the BUN ([3]; oral gavage 1 mg/kg) was 9.39±0.92, the Scr ([3]; oral gavage 1 mg/kg) was 64.50±7.13 and the “effect on mouse survival rate” value ([8]; 500 mg/kg and 1000 mg/kg, 30 days) was “no significant effect on the survival rate”. The “time to recover to normal activity after administration” value ([8]; 500, 1000 mg/kg oral gavage) was 1 to 2 h, the “effect on mouse activity status” value ([8]; 500, 1000 mg/kg oral gavage once daily, 30 days) was “relatively reduced activity and lethargy after each administration” and the “effect on mouse body weight” value ([8]; 500, 1000 mg/kg oral gavage once daily, 30 days, female and male mice) was “no significant effect on the body weight”. For the same molecule, the Survival rate ([8]; female C57BL/6 mice, 500 mg/kg oral gavage once daily for 30 days) was 100%, the Survival rate ([8]; female C57BL/6 mice, 1000 mg/kg oral gavage once daily for 30 days) was 100% and the Survival rate ([8]; male C57BL/6 mice, 500 mg/kg oral gavage once daily for 30 days) was 100%. The Survival rate ([8]; male C57BL/6 mice, 1000 mg/kg oral gavage once daily for 30 days) was 100.00%.

Source: patent publication EP4813381A1, “PHARMACEUTICAL USE OF GUAIANE SESQUITERPENE DERIVATIVE” (Nanjing University Of Chinese Medicine, priority 2023, dated 2025)
